Laboratory results reported in ChEMBL document CHEMBL1201862, “PubChem BioAssay data set” (2004).
Calls of active or inactive are those of the source.

Key:
[1] = molecular target: Luciferin 4-monooxygenase (Photinus pyralis, UniProt P08659); test: firefly luciferase enzyme inhibitors, dose response, biochemical, luminescence (AID 1891)
[2] = Luminescence Cell-Based Dose Confirmation HTS to Identify Inhibitors of Platelet Dense Granule Release. [Related pubchem assays: 1663 (Primary HTS), 1678 (Summary of Project)]; assay type: functional
[3] = inhibitors of HIV Env-driven cell fusion, dose response, cherry-pick (AID 652057); assay type: functional, cell-based
[4] = ZM109 Env clade C HIV-1 fusion inhibitors, dose response, HeLa effector, CEM target cells, luciferase, cherry-pick (AID 652058); assay type: functional, cell-based
[5] = inhibitors of clade B AD8 Env fusion, dose response, cell-based, cherry-pick (AID 652062); assay type: functional;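 note: luciferase signal from cell-cell fusion driven by HIV-1 clade B AD8 Env; potency is for inhibitors of fusion seen as a drop in luminescence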
[6] = P. falciparum Dd2 growth inhibitors, dose response, SYBR Green, cherry-picked samples (AID 1159567); assay type: functional, cell-based
[7] = HepG2 cell cytotoxicity, dose response, cytotoxicity control, cherry-picked samples (AID 1159577); assay type: functional, cell-based
Large T antigen = Large T antigen (Simian virus 40, UniProt P03070); assay type: functional, Betapolyomavirus macacae;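 note: Confirmatory-stage PubChem screen for compounds that inhibit SV40 T antigen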
[8] = A cytotoxicity screen of small molecule inhibitors of the PhoP region in Salmonella typhi identified in the primary screen. [Related pubchem assays: 1850, 1864, 1985 ]; assay type: functional
[9] = molecular target: T1, Sentrin-specific protease 7 (Homo sapiens, UniProt Q9BQF6); assay type: functional;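 note: Luminescence-based dose-response confirmation of ultra-high-throughput screening hits, measuring inhibition of SENP7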
T1 sequence (Q9BQF6 whole entry): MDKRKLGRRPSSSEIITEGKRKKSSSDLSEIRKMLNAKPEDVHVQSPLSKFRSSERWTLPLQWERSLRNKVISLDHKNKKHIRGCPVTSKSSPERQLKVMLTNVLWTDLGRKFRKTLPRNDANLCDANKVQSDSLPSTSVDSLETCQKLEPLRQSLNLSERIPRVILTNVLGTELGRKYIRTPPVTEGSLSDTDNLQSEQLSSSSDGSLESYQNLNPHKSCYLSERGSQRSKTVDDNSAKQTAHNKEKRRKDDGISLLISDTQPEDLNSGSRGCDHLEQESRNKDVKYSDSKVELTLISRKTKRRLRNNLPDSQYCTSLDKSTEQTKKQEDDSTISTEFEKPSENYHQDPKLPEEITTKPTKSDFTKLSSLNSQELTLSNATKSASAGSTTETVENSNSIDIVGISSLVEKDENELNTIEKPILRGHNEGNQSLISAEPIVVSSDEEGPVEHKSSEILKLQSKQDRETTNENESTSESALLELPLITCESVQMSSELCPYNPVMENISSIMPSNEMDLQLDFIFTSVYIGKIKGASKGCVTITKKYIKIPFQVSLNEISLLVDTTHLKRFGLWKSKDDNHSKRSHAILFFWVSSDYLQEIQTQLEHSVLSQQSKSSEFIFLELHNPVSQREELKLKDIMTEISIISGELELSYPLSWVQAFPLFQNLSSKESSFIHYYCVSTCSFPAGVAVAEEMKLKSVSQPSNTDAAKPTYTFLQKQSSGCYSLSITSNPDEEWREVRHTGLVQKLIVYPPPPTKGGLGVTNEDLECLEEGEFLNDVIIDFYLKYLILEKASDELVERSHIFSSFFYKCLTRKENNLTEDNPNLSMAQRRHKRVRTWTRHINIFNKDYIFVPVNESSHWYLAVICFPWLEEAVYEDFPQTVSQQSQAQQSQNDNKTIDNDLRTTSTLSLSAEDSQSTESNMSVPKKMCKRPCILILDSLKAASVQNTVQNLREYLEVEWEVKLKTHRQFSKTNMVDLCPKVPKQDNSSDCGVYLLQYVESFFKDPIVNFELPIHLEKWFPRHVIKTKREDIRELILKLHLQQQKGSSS

[10] = molecular target: T2, Sentrin-specific protease 6 (Homo sapiens, UniProt Q9GZR1); assay type: functional;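 note: Luminescence-based dose-response confirmatory assay of SENP6 inhibition, following up an ultra-high-throughput screen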
T2 sequence (Q9GZR1 whole entry): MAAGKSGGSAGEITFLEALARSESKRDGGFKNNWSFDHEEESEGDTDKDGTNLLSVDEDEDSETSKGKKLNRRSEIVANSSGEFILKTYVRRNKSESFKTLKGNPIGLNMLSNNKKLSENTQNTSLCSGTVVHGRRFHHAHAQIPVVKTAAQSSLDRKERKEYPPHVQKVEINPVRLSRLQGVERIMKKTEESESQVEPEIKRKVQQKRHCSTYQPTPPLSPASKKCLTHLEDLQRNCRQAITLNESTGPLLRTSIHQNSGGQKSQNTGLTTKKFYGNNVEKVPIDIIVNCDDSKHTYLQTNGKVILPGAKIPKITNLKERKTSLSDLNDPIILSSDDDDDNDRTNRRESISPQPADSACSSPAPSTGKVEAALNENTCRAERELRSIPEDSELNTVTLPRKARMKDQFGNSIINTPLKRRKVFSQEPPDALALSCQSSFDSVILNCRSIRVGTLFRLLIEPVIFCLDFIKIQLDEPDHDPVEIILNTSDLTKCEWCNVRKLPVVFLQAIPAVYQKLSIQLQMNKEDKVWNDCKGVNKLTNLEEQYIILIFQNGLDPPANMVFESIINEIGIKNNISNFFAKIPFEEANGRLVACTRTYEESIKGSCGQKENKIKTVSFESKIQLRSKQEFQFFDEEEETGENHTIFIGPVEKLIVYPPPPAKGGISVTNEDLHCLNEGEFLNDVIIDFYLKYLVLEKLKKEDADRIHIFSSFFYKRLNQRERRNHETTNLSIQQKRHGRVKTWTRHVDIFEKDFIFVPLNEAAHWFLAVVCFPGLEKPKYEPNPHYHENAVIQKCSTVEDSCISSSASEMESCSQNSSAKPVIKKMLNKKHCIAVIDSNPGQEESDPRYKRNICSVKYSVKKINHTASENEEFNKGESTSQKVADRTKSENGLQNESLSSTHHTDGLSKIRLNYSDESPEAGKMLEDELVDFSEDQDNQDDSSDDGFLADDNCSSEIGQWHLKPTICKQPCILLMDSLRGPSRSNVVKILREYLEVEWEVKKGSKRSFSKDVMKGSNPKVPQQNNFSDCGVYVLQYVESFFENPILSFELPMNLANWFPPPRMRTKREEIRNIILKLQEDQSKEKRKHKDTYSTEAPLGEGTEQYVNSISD

[11] = molecular target: T3, Sentrin-specific protease 8 (Homo sapiens, UniProt Q96LD8); assay type: functional;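 note: luminescence read-out of SENP8 inhibition, dose-response confirmation following an ultra-high-throughput screen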
T3 sequence (Q96LD8 whole entry): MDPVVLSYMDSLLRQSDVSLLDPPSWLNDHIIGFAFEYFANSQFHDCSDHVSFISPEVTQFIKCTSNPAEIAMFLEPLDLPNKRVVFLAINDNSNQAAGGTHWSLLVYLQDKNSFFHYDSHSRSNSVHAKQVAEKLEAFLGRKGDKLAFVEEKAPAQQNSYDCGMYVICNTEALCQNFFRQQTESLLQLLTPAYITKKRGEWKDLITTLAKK

[12] = Shn3 3'UTR reporter inhibitors, dose response, cell-based, Clone20 osteoblasts, firefly luciferase, cherry-picked (AID 624132); assay type: functional;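 note: firefly luciferase luminescence from reporter carrying the Shn3 3'UTR in osteoblasts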
[13] = HepG2 cell cytotoxicity, dose response, cytotoxicity control for Shn3 inhibitor project, CellTiter-Glo, cherry-picked (AID 624134); assay type: functional, cell-based
[14] = control 3'UTR Renilla luciferase suppression, dose response, counter-screen for Shn3 inhibitor project, cell-based, Clone20-Shn3RL, cherry-picked (AID 624133); assay type: functional
Estrogen receptor beta = Estrogen receptor beta (Homo sapiens, UniProt Q92731); test: ERβ–SRC-3 coactivator interaction inhibitors, confirmation, orthogonal assay, biochemical, ELISA, streptavidin-HRP readout (AID 1060)
BJ [15] = test: cytotoxicity toward BJ-TERT fibroblasts, dose response, cell-based, RAS-independent, luminescence (AID 1933); assay type: functional; conditions: Homo sapiens
BJ [16] = test: cells; assay type: functional, cell-based; conditions: Homo sapiens
BJ [17] = test: cytotoxicity toward BJ-TERT-LT-ST fibroblasts, dose response, cell-based, RAS-independent, luminescence (AID 1935); assay type: functional; conditions: Homo sapiens;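 note: BJ fibroblasts immortalized with TERT plus LT and ST oncogenes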
[18] = cytotoxicity toward DRD oncogenic fibroblasts, dose response, cell-based, non-viral oncogenic, luminescence (AID 1934); assay type: functional; conditions: Homo sapiens
Estrogen receptor = molecular target: T4, Estrogen receptor (Homo sapiens, UniProt P03372);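 note: potency for inhibiting coactivator peptide recruitment to the receptor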
T4 sequence (P03372 whole entry): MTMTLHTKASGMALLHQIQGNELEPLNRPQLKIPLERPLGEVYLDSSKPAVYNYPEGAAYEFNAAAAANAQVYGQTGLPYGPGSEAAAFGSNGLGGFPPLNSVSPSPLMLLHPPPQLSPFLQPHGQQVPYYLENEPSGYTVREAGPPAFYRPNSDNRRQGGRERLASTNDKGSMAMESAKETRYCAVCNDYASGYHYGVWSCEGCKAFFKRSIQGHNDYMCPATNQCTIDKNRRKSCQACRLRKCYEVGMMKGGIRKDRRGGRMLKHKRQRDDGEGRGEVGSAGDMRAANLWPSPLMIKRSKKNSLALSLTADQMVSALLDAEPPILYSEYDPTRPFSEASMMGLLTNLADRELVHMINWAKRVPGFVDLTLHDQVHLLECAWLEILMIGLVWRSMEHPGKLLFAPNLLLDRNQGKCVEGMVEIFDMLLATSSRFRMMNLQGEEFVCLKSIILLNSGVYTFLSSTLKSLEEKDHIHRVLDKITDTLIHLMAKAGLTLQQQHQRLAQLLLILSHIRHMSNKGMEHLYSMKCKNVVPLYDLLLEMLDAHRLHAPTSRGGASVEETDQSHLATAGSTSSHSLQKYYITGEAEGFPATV

INS1 = test: beta cell apoptosis inhibitors, cytokine rescue, dose response, luminescence, retest (AID 449756); assay type: functional, cell-based; conditions: Rattus norvegicus;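 note: cell death triggered by IL-1 beta plus TNF-alpha plus IFN-gamma mixture; protective hits raise ATP signal compared with cytokine alone wells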

Sequence of Luciferin 4-monooxygenase (P08659 whole entry): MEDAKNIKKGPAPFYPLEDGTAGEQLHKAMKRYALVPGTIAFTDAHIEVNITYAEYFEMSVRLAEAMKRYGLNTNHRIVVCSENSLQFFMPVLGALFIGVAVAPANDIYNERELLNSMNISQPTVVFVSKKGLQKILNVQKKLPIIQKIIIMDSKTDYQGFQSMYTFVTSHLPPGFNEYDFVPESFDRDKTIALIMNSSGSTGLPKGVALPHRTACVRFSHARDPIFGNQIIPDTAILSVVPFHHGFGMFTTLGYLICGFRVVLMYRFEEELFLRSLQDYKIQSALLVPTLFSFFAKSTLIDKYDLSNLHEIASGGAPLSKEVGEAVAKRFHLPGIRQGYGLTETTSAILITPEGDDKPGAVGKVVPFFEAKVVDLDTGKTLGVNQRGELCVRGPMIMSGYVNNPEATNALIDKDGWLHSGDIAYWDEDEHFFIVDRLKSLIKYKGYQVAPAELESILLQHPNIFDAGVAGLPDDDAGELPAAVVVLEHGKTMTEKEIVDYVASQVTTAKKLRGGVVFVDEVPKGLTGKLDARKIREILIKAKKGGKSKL
Sequence of Estrogen receptor beta (Q92731 whole entry): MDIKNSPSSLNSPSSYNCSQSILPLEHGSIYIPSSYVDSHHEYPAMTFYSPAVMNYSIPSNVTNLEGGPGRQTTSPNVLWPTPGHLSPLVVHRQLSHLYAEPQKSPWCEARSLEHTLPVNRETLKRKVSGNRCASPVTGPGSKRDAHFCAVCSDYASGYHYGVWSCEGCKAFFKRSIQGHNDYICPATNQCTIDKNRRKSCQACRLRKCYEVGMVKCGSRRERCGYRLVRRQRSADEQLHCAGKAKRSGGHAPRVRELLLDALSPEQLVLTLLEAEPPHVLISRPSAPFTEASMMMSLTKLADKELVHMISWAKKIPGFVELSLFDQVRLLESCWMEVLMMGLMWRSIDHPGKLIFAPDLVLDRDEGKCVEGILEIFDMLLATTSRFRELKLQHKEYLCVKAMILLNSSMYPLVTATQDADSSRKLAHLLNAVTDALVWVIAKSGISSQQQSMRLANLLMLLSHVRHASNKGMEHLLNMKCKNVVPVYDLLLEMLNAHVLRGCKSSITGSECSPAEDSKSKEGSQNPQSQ
Sequence of Large T antigen (P03070 whole entry): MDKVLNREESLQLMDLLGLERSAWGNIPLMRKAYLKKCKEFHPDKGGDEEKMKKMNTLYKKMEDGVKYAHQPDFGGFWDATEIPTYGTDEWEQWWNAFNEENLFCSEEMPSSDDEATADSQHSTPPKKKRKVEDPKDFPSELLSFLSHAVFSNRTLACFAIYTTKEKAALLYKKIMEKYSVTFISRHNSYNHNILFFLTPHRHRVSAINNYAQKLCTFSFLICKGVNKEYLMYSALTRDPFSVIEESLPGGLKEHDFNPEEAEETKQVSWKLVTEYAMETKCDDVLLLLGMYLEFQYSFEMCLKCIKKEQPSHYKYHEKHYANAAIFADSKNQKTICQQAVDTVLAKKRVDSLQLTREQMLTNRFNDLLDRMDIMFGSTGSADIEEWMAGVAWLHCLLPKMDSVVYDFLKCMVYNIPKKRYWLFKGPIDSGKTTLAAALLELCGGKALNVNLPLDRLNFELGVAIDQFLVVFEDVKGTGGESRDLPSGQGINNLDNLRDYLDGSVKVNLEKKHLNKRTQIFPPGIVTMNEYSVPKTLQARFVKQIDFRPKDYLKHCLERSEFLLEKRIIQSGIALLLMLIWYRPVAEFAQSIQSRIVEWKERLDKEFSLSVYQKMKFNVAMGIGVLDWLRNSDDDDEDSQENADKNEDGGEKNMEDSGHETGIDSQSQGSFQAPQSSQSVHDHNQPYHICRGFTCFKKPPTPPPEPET

SMILES: CCOC(=O)c1cc2cc([N+](=O)[O-])ccc2oc1=O
- EC50 [1]: > 112 µM (not active)
- EC50 [2]: > 112 µM (not active)

SMILES: COc1ccccc1NC(=O)N[C@@H]1CC[C@H](CC(=O)N[C@H](C)c2ccccc2)O[C@@H]1CO
- AC50 [3]: 0.97 µM (active)
- AC50 [4]: < 0.26 µM (active)
- AC50 [5]: 2.61 µM (active)

SMILES: COc1ccc(C#Cc2ccc([C@@H]3[C@H](CO)N4CCCCN(Cc5ccncc5)C[C@@H]34)cc2)cc1
- AC50 [6]: 0.949 µM (active)
- AC50 [7]: 13.6 µM (active)

SMILES: C[C@@H]1CN([C@H](C)CO)S(=O)(=O)c2ccc(/C=C/c3ccccc3)cc2O[C@H]1CN(C)Cc1cccnc1
- AC50 [6]: 3.7 µM (active)
- AC50 [7]: 19.7 µM (active)

SMILES: O=c1cc(CN2CCN(c3ccc(O)cc3)CC2)nc2scc(-c3ccccc3)n12
- IC50 (Large T antigen): 10.5 µM (active)

SMILES: Clc1ccc(CNCc2cccs2)cc1Cl
- EC50 [8]: > 50 µM (active)

SMILES: C=CCn1c(O)c(N=NC(=O)c2cccnc2)c2cc(Br)ccc21
- EC50 [8]: > 50 µM (active)

SMILES: C[C@H](CO)N1C[C@H](C)[C@@H](CN(C)C(=O)Nc2cccc3ccccc23)OCCCC[C@H](C)Oc2ccc(N(C)C)cc2C1=O
- AC50 [4]: 24.8 µM (active)

SMILES: O=C1NC(=O)C2(CCC(C(=O)O)C2)N1 (stereo not drawn)
- EC50 [1]: > 112 µM (not active)
- EC50 [2]: > 112 µM (not active)

SMILES: O=C(NCN1CCN(c2ccccn2)CC1)c1cnccn1
- EC50 [1]: > 112 µM (not active)
- EC50 [2]: > 112 µM (not active)

SMILES: Cc1[nH]n(C(N)=S)c(=O)c1/N=N/c1ccccc1C(F)(F)F
- IC50 [9]: 12.7 µM (active)
- IC50 [10]: 18.9 µM (active)
- IC50 [11]: 15.5 µM (active)

SMILES: COc1cccc(CN2CC3(CCN(CC4CC4)CC3)c3c([nH]c4cc(OC)ccc34)[C@H]2CO)c1
- AC50 [6]: 5 µM (active)
- AC50 [7]: 19.7 µM (active)

SMILES: C[C@H](CO)N1C[C@H](C)[C@H](CN(C)S(=O)(=O)c2ccc(Cl)cc2)Oc2ccc(NC(=O)C3CCCCC3)cc2CC1=O
- AC50 [3]: 1.36 µM (active)
- AC50 [4]: 2.13 µM (active)
- AC50 [5]: 20.1 µM (active)

SMILES: C/C(=N\NC(=O)COc1ccccc1[N+](=O)[O-])c1cccs1
- EC50 [8]: > 50 µM (active)

SMILES: CCOc1cc(NS(=O)(=O)c2ccc(NC(C)=O)cc2)c(OCC)cc1NC(=O)c1cccs1
- IC50 (Large T antigen): 24 µM (active)

SMILES: COc1ccccc1-c1c(C(F)(F)F)n[nH]c1-c1ccc(O)cc1O
- AC50 [12]: 0.708 µM (active)
- AC50 [13]: > 70 µM (inactive)
- AC50 [14]: 1.42 µM (active)
- AC50 [4]: 0.97 µM (active)
- AC50 [5]: 19 µM (active)

SMILES: COc1ccc(NC(=O)c2cc(-c3ccc(C)o3)nc3ccccc23)cc1OC
- IC50 (Estrogen receptor beta): 24.7 µM (not active)

SMILES: COc1cc(SC)ccc1C(=O)NNC(=O)c1cc(C)oc1C
- EC50 (BJ [15]): 3.71 µM (inconclusive)
- EC50 (BJ [16]): 6.06 µM (active)
- EC50 [1]: 1.4 µM (active)
- EC50 [2]: 8.87 µM (active)
- EC50 (BJ [17]): 18.2 µM (active)
- EC50 [18]: 3.82 µM (active)

SMILES: CC(C)N(C[C@H]1N[C@H](CO)[C@@H]1c1ccc(C2=CCCC2)cc1)C(=O)CN(C)C
- AC50 [6]: 5.21 µM (active)
- AC50 [7]: > 39 µM (inactive)

SMILES: O=C(Nc1cccnc1)c1cc(Br)c(Br)s1
- EC50 [8]: > 50 µM (active)

SMILES: CCOC(=O)C1CCCN(C(=O)c2cc3ncc(Br)cn3n2)C1 (stereo not drawn)
- IC50 (Estrogen receptor): 20.7 µM (active)
- IC50 (Estrogen receptor beta): 0.0694 µM (not active)

SMILES: Cc1ccc(C(=O)Nc2cccc3[nH]c(C(F)(F)F)nc23)cc1
- AC50 (INS1): 7.25 µM (active)
- AC50 [12]: 3.93 µM (active)
- AC50 [13]: 33.6 µM (active)
- AC50 [14]: 10.3 µM (active)
